Data: the Biogen ADME set (Fang et al. 2023)
Converted amounts (≈) assume the structure as drawn.

Settings: for aqueous solubility: pH 6.8

MDR1-MDCK efflux ratio	intrinsic clearance, human liver microsomes	intrinsic clearance, rat liver microsomes	aqueous solubility	fraction unbound, human plasma	fraction unbound, rat plasma	SMILES
0.662	756 mL/min/kg	1890 mL/min/kg	6.56 µg/mL (≈ 20.2 µM)	–	–	CCOC(=O)c1cc2ccccc2n1CC(=O)c1ccc(F)cc1
–	≤ 4.74 mL/min/kg	≤ 10.7 mL/min/kg	48.8 µg/mL (≈ 209 µM)	–	–	O=C(Cn1ccnc1)NCc1ccccc1F
23.1	≤ 4.74 mL/min/kg	16.6 mL/min/kg	–	–	–	Cc1nnc(COc2cccc(-n3ccnc3)c2)n1C1CC1
19.2	35.9 mL/min/kg	1430 mL/min/kg	–	–	–	CCc1cc(CNC(=O)Nc2ccc(N3CCSCC3)cc2)on1
13.4	17.2 mL/min/kg	55.8 mL/min/kg	40.3 µg/mL (≈ 112 µM)	–	–	N[C@H](Cc1c[nH]c2ccccc12)C(=O)N/N=C/c1ccc2nccnc2c1
4.78	6.36 mL/min/kg	54.5 mL/min/kg	–	–	–	N#Cc1ccc2nc(NCCn3ccnc3)ccc2c1
–	8.7 mL/min/kg	90.9 mL/min/kg	–	–	–	COc1cc2nc(-c3ccc(N4CCN(C)CC4)cc3)nc(NCCN3CCOCC3)c2cc1OC
–	–	–	36.4 µg/mL (≈ 88 µM)	–	–	Cc1cc2c(C(N)=O)cccc2n1-c1nc2c(c(NCc3ccccc3)n1)COCC2
7.02	108 mL/min/kg	631 mL/min/kg	70.6 µg/mL (≈ 170 µM)	–	–	COc1cccc(CN2CCC(Cc3ccc(-c4cccnc4)cc3)(C(N)=O)CC2)c1
20.9	≤ 4.74 mL/min/kg	581 mL/min/kg	54.1 µg/mL (≈ 148 µM)	–	–	Cc1ccc(S(=O)(=O)N2CCC[C@H](C(=O)NC3CCOCC3)C2)cc1
0.541	75.1 mL/min/kg	420 mL/min/kg	–	–	–	c1ccc(-c2nc(CSc3ccc(-n4cccn4)nn3)cs2)cc1
17.7	≤ 4.74 mL/min/kg	76 mL/min/kg	–	–	–	O=C(c1ccc(-c2ccncc2)cc1)N1CCC(O)(CN2CCCC2)CC1
8.24	≤ 4.74 mL/min/kg	363 mL/min/kg	–	–	–	COc1cccc(F)c1NC(=O)N1CCC(N2CC=CC2)CC1
0.688	65.1 mL/min/kg	1250 mL/min/kg	20.9 µg/mL (≈ 71.5 µM)	–	–	CCc1nc(CN2C(=O)COc3ccc(F)cc32)cs1
0.708	5.23 mL/min/kg	31.3 mL/min/kg	33.8 µg/mL (≈ 159 µM)	–	–	O=C(NC1CC1)c1cccc2cccnc12
–	≤ 4.74 mL/min/kg	≤ 10.7 mL/min/kg	–	–	–	Cc1nc2ccccc2c(C(=O)O)c1C
2.9	9.42 mL/min/kg	228 mL/min/kg	–	–	–	COc1cc(CN2CCC(C(=O)N3CCOCC3)CC2)ccc1C
0.663	≤ 4.74 mL/min/kg	69.7 mL/min/kg	–	–	–	CC1(C)CCCN1C(=O)c1c(F)cc(C#N)cc1F
4.16	19.3 mL/min/kg	278 mL/min/kg	–	–	–	CCn1ncc(CN(C)C(=O)c2ccc(-c3nc(C)cc(C)n3)cc2)c1C
31.7	≤ 4.74 mL/min/kg	≤ 10.7 mL/min/kg	–	–	–	O=C(NCC1(N2CCCCC2)CCCC1)c1cnn[nH]1
1.25	32 mL/min/kg	111 mL/min/kg	65.8 µg/mL (≈ 166 µM)	–	–	CN(C)C(=O)c1sc2nc(C3(C)CCN(c4ncccn4)CC3)ccc2c1N

MDR1-MDCK efflux ratio	intrinsic clearance, human liver microsomes	intrinsic clearance, rat liver microsomes	aqueous solubility	fraction unbound, human plasma	fraction unbound, rat plasma	SMILES
0.64	60.6 mL/min/kg	3460 mL/min/kg	–	–	–	Fc1cccc(N2CCCC2)c1CN1CCN(Cc2ccon2)CC1
0.602	15 mL/min/kg	703 mL/min/kg	–	–	–	Cc1cc(CN2CC(O)(CC#N)C2)ccc1F
–	≤ 4.74 mL/min/kg	93.1 mL/min/kg	–	–	–	CCNc1cc2c(nn1)CCN(C(=O)Cn1ccc3ccccc31)C2
0.876	139 mL/min/kg	128 mL/min/kg	7 µg/mL (≈ 17.7 µM)	–	–	O=C(CSc1nc2nc(O)cc(O)c2s1)c1ccc(-c2ccccc2)cc1
0.525	130 mL/min/kg	819 mL/min/kg	–	–	–	CCOCCNC(=O)c1cccc(-c2cc(F)ccc2OC)c1
–	≤ 4.74 mL/min/kg	–	–	0.492	0.696	CC(C)(C)OC(=O)N1CCCC1C(=O)N1CCC(C(=O)N[C@@H](Cc2c[nH]c3ccccc23)C(=O)O)CC1 (some centres not stated)
7.18	≤ 4.74 mL/min/kg	274 mL/min/kg	–	–	–	CCC(C)(C)N1CCN(C(=O)NCCc2cc(C)no2)CC1
–	≤ 4.74 mL/min/kg	≤ 10.7 mL/min/kg	–	–	–	O=C(NCc1ccc(CN2CCS(=O)(=O)CC2)cc1)c1ccon1
0.556	16.8 mL/min/kg	626 mL/min/kg	30.6 µg/mL (≈ 120 µM)	–	–	Cc1ccc(NC(=O)C(C)(C)c2ccccc2)nc1
–	–	–	30.6 µg/mL (≈ 148 µM)	–	–	CNc1cc(CC2CCNCC2)ncn1
0.659	18.9 mL/min/kg	71.3 mL/min/kg	25.6 µg/mL (≈ 128 µM)	–	–	COCC(=O)Nc1nc(C)c(C)s1
7.25	55.8 mL/min/kg	765 mL/min/kg	–	–	–	CC(C)Cc1ccccc1CNCc1ccc2[nH]cnc2c1
37.4	9.96 mL/min/kg	90.9 mL/min/kg	59.5 µg/mL (≈ 142 µM)	–	–	Cc1nc(CC2CCN(S(=O)(=O)c3cn(C)cn3)CC2)cc(NC2CCCC2)n1
23.6	180 mL/min/kg	783 mL/min/kg	28 µg/mL (≈ 58.3 µM)	–	–	CC(C)NC(=O)N1CC[C@H](NC2=Nc3cc(F)ccc3N(CC(F)F)c3ccc(Cl)cc32)C1
19.4	≤ 4.74 mL/min/kg	≤ 10.7 mL/min/kg	–	–	–	NCCOc1cccc(CC(=O)N2CCC(F)(F)CC2)c1
1.45	46.5 mL/min/kg	255 mL/min/kg	33.2 µg/mL (≈ 94.5 µM)	–	–	COc1ccc(C)cc1-n1ccc(C(=O)Nc2c3c(nn2C)CCC3)n1
22.1	126 mL/min/kg	891 mL/min/kg	42 µg/mL (≈ 116 µM)	–	–	CCc1ccccc1NC(=O)CCn1ccnc1-c1ccc2c(c1)OCO2
0.636	≤ 4.74 mL/min/kg	67.2 mL/min/kg	79 µg/mL (≈ 318 µM)	–	–	Cc1cccc(OC2CCN(CC(N)=O)CC2)c1
–	–	–	0.4 µg/mL (≈ 1.07 µM)	–	–	COc1cccc(-c2ocnc2C(=O)Nc2ccc(-c3ccc(C)o3)cc2)c1
–	31.9 mL/min/kg	165 mL/min/kg	–	–	–	O=C(Nc1ccc(C(F)(F)F)cc1)c1ccccn1
–	163 mL/min/kg	280 mL/min/kg	–	–	–	CN(C)c1ccnc(NC(=O)c2cnsn2)c1

MDR1-MDCK efflux ratio	intrinsic clearance, human liver microsomes	intrinsic clearance, rat liver microsomes	aqueous solubility	fraction unbound, human plasma	fraction unbound, rat plasma	SMILES
–	60.9 mL/min/kg	373 mL/min/kg	–	–	–	O=C(NCCN1CCC(n2c(=O)[nH]c3cc(Cl)ccc32)CC1)c1ccc(F)cc1
5.17	≤ 4.74 mL/min/kg	11 mL/min/kg	52.3 µg/mL (≈ 123 µM)	–	–	CN1CCC(C(=O)N2CCC(c3cc(C(F)(F)F)c4c(n3)CCNC4=O)CC2)CC1
1.55	≤ 4.74 mL/min/kg	58.2 mL/min/kg	–	–	–	COc1cc(OC)cc(N2CCC(NCC3(C)CCOCC3)CC2)c1
–	11.1 mL/min/kg	488 mL/min/kg	–	–	–	O=C1OCCN1CCN1CCC(c2cc3ccccc3[nH]2)CC1
–	–	–	57.4 µg/mL (≈ 263 µM)	–	–	Cn1ccnc1COc1ccc(CO)cc1
–	39.7 mL/min/kg	95.6 mL/min/kg	–	–	–	O=C(NCCc1ccc(F)cc1)n1ccnc1
–	≤ 4.74 mL/min/kg	253 mL/min/kg	–	–	–	COc1cc(C)cc(OC)c1-c1ccc(OCC(N)=O)cc1
1.07	–	–	0.26 µg/mL (≈ 0.715 µM)	–	–	COc1cccc(-n2c(S)nnc2COc2cccc3ccccc23)c1
–	5.69 mL/min/kg	48.9 mL/min/kg	–	–	–	Cc1noc(CC2CCN(Cc3cccnc3)CC2)n1
6.92	25.7 mL/min/kg	308 mL/min/kg	48.4 µg/mL (≈ 146 µM)	–	–	CCCN(CC)c1ccc(C(=O)N2CCCN(C(C)=O)CC2)cc1
–	10.5 mL/min/kg	134 mL/min/kg	5.53 µg/mL (≈ 14.8 µM)	–	–	CN(Cc1ccc(-c2ccc(Br)cc2)o1)C(=O)c1cnn(C)c1
93.7	87.4 mL/min/kg	529 mL/min/kg	–	–	–	Cc1n[nH]c(C)c1CCCN(C)c1cncc(C(=O)N(C)C)n1
61.7	35 mL/min/kg	218 mL/min/kg	53.6 µg/mL (≈ 148 µM)	–	–	CC[C@@H]1[C@H](F)C(=O)N[C@@H]1COc1nccc2cc(C(N)=O)c(OC)cc12
–	44.3 mL/min/kg	244 mL/min/kg	–	–	–	c1cnc2c(Oc3ncnc4sccc34)cccc2c1
1.88	51.4 mL/min/kg	1070 mL/min/kg	–	–	–	C#Cc1cccc(N(CCC(=O)NC(N)=O)Cc2cccs2)c1
0.427	≤ 4.74 mL/min/kg	20.8 mL/min/kg	35.2 µg/mL (≈ 128 µM)	–	–	O=C(NCc1ccc(CO)c(F)c1)Nc1ccccc1
–	163 mL/min/kg	1960 mL/min/kg	–	–	–	COc1ccc(OC)c(C(=O)/C=C/c2ccccc2)c1
–	–	–	14.1 µg/mL (≈ 39.4 µM)	–	–	O=C(Cc1cccc2ccccc12)NCc1ccc(N2CCCC2=O)cc1
–	1120 mL/min/kg	4670 mL/min/kg	8.5 µg/mL (≈ 22.3 µM)	–	–	CSc1ccccc1NC(=O)CN1CCCC(c2nc3ccccc3o2)C1 (configuration not stated)
5.19	183 mL/min/kg	1330 mL/min/kg	19.8 µg/mL (≈ 47 µM)	–	–	O=c1c2cccn2c2ccccc2n1CCCN1CCC(c2ccc(Cl)cc2)CC1
